Several values for one entry are separate records, joined by “and”; a condition that tells them apart may be missing. Identical values can stand only once. Inconclusive results and toxic doses are left out.
System: P388 leukemia ip, CD2F1 mice, survival T/C
Test: NCI In Vivo Anticancer Drug Screen. Data for tumor model P388 Leukemia (intraperitoneal) in CD2F1 (CDF1) mice
Conditions: endpoint: median survival time, higher = longer survival
Procedure, shortened: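 Mice carrying the transplanted tumor received test compound or vehicle. Survival was recorded in each group, and the value is the treated-group measurement divided by that of the vehicle-treated control group.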

[1] = dose: 100.0 mg/kg/injection, schedule: Q01DX009 (ip), vehicle: Klucel (hydroxypropylcellulose) (HPC)
[2] = dose: 200.0 mg/kg/injection, schedule: Q01DX009 (ip), vehicle: Klucel (hydroxypropylcellulose) (HPC)
[3] = dose: 50.0 mg/kg/injection, schedule: Q01DX001 (ip), vehicle: saline with Tween-80
[4] = dose: 100.0 mg/kg/injection, schedule: Q01DX001 (ip), vehicle: saline with Tween-80
[5] = dose: 50.0 mg/kg/injection, schedule: Q01DX009 (ip), vehicle: saline with Tween-80
[6] = dose: 100.0 mg/kg/injection, schedule: Q01DX009 (ip), vehicle: saline with Tween-80
[7] = dose: 50.0 mg/kg/injection, schedule: Q01DX005 (ip), vehicle: saline with Tween-80
[8] = dose: 100.0 mg/kg/injection, schedule: Q01DX005 (ip), vehicle: saline with Tween-80
[9] = dose: 200.0 mg/kg/injection, schedule: Q01DX005 (ip), vehicle: saline with Tween-80
[10] = dose: 50.0 mg/kg/injection, schedule: Q01DX009 (ip), vehicle: Klucel (hydroxypropylcellulose) (HPC)
[11] = dose: 25.0 mg/kg/injection, schedule: Q01DX009 (ip), vehicle: Klucel (hydroxypropylcellulose) (HPC)

## O=c1oc(-c2cccc(F)c2)ns1
[1]
  T/C: 115 % of control
[2]
  T/C: 116 % of control
dose: 400.0 mg/kg/injection, schedule: Q01DX009 (ip), vehicle: Klucel (hydroxypropylcellulose) (HPC)
  T/C: 115 % of control

## CCCCCCCCCCCCCCC(Cl)C/[N+]([O-])=[N+](/[O-])CC(Cl)CCCCCCCCCCCCCC (stereo not given)
dose: 100.0 mg/kg/injection, schedule: Q04DX003 (ip), vehicle: saline
  T/C: 92 % of control
dose: 200.0 mg/kg/injection, schedule: Q04DX003 (ip), vehicle: saline
  T/C: 92 % of control
dose: 400.0 mg/kg/injection, schedule: Q04DX003 (ip), vehicle: saline
  T/C: 92 % of control

## c1ccc2c(c1)N=Nc1ccccc1OCCOCCOCCO2
dose: 25.0 mg/kg/injection, schedule: Q01DX001 (ip), vehicle: saline with Tween-80
  T/C: 103 % of control
[3]
  T/C: 102 % of control
[4]
  T/C: 92 % of control

## O=C(Cc1ccccc1)NC1C(=O)N2c3c(CO)cccc3OCC12 (stereo not given)
[3]
  T/C: 100 % of control
[4]
  T/C: 90 % of control
dose: 200.0 mg/kg/injection, schedule: Q01DX001 (ip), vehicle: saline with Tween-80
  T/C: 94 % of control

## O=C(O)C(CS)NCCNC(CS)C(=O)O (stereo not given)
dose: 12.5 mg/kg/injection, schedule: Q01DX001 (ip), vehicle: Klucel (hydroxypropylcellulose) (HPC)
  T/C: 97 % of control
dose: 25.0 mg/kg/injection, schedule: Q01DX001 (ip), vehicle: Klucel (hydroxypropylcellulose) (HPC)
  T/C: 97 % of control

## COC(C(=O)C(O)C(C)O)C1Cc2cc3cc(OC4CC(OC5CC(O)C(O)C(C)O5)C(O)C(C)O4)c(C)c(O)c3c(O)c2C(=O)C1OC1CC(OC2CC(O)C(OC3CC(C)(O)C(O)C(C)O3)C(C)O2)C(O)C(C)O1 (stereo not given)
dose: 0.06 mg/kg/injection, schedule: Q01DX009 (ip), vehicle: saline
  T/C: 122 % of control
dose: 0.13 mg/kg/injection, schedule: Q01DX001 (ip), vehicle: saline
  T/C: 104 % of control
dose: 0.13 mg/kg/injection, schedule: Q01DX009 (ip), vehicle: saline
  T/C: 106 % of control
dose: 0.25 mg/kg/injection, schedule: Q01DX001 (ip), vehicle: saline
  T/C: 103 % of control
dose: 0.25 mg/kg/injection, schedule: Q01DX009 (ip), vehicle: saline
  T/C: 109 % of control
dose: 0.5 mg/kg/injection, schedule: Q01DX001 (ip), vehicle: saline
  T/C: 109 % of control
dose: 0.5 mg/kg/injection, schedule: Q04DX003 (ip), vehicle: saline
  T/C: 116 % of control
dose: 2.0 mg/kg/injection, schedule: Q01DX009 (ip), vehicle: saline
  T/C: 151 % of control

## OCCN(CCO)Cc1nc2cc(Cl)c(Cl)cc2[nH]1
dose: 50.0 mg/kg/injection, schedule: Q01DX005 (ip), vehicle: saline
  T/C: 97 % of control
dose: 100.0 mg/kg/injection, schedule: Q01DX005 (ip), vehicle: saline
  T/C: 112 % of control
dose: 200.0 mg/kg/injection, schedule: Q01DX005 (ip), vehicle: saline
  T/C: 90 % of control

## c1ccc2c(c1)CCc1ccccc1C2NC1=NCCSC1
[5]
  T/C: 86 % of control
[6]
  T/C: 93 % of control

## O=CCC(O)C(O)C(O)CO (stereo not given)
dose: 150.0 mg/kg/injection, schedule: Q01DX009 (ip), vehicle: saline
  T/C: 107 % of control
dose: 300.0 mg/kg/injection, schedule: Q01DX009 (ip), vehicle: saline
  T/C: 100 % of control and 104 % of control and 121 % of control
dose: 600.0 mg/kg/injection, schedule: Q01DX009 (ip), vehicle: saline
  T/C: 107 % of control and 112 % of control and 121 % of control
dose: 1200.0 mg/kg/injection, schedule: Q01DX009 (ip), vehicle: saline
  T/C: 103 % of control
dose: 2400.0 mg/kg/injection, schedule: Q01DX009 (ip), vehicle: saline
  T/C: 110 % of control and 91 % of control

## ON1c2ccc3ccccc3c2C=CC1(c1ccccc1)c1ccccc1
[7]
  T/C: 103 % of control
[8]
  T/C: 103 % of control
[9]
  T/C: 97 % of control

## CCOC(=O)/C(C#N)=C(\O)CCCC(=O)O
[10]
  T/C: 88 % of control
[1]
  T/C: 91 % of control
[2]
  T/C: 90 % of control

## C=C(C)C1CC2=C(C(=O)OC)C=C(O2)C(C(=C)C)C2C=C(C(=O)O2)C2OC12 (stereo not given)
dose: 12.5 mg/kg/injection, schedule: Q01DX005 (ip), vehicle: saline + alcohol
  T/C: 99 % of control
dose: 25.0 mg/kg/injection, schedule: Q01DX005 (ip), vehicle: saline + alcohol
  T/C: 103 % of control
dose: 50.0 mg/kg/injection, schedule: Q01DX005 (ip), vehicle: saline + alcohol
  T/C: 97 % of control
dose: 100.0 mg/kg/injection, schedule: Q01DX005 (ip), vehicle: saline + alcohol
  T/C: 108 % of control

## S=c1nnn(C2CCCN2)[nH]1 (stereo not given)
dose: 100.0 mg/kg/injection, schedule: Q01DX001 (ip), vehicle: Klucel (hydroxypropylcellulose) (HPC)
  T/C: 100 % of control
dose: 200.0 mg/kg/injection, schedule: Q01DX001 (ip), vehicle: Klucel (hydroxypropylcellulose) (HPC)
  T/C: 97 % of control
dose: 400.0 mg/kg/injection, schedule: Q01DX001 (ip), vehicle: Klucel (hydroxypropylcellulose) (HPC)
  T/C: 100 % of control

## C=C1N(C)c2ccccc2C1(C)C
dose: 4.0 mg/kg/injection, schedule: Q01DX009 (ip), vehicle: saline with Tween-80
  T/C: 113 % of control
dose: 5.9 mg/kg/injection, schedule: Q01DX009 (ip), vehicle: saline with Tween-80
  T/C: 123 % of control
dose: 9.0 mg/kg/injection, schedule: Q01DX009 (ip), vehicle: saline with Tween-80
  T/C: 110 % of control
dose: 13.0 mg/kg/injection, schedule: Q01DX009 (ip), vehicle: saline with Tween-80
  T/C: 108 % of control and 118 % of control
dose: 19.0 mg/kg/injection, schedule: Q01DX009 (ip), vehicle: saline with Tween-80
  T/C: 106 % of control
dose: 29.0 mg/kg/injection, schedule: Q01DX009 (ip), vehicle: saline with Tween-80
  T/C: 109 % of control
dose: 45.0 mg/kg/injection, schedule: Q01DX009 (ip), vehicle: saline with Tween-80
  T/C: 115 % of control

## CSc1nc(Cl)cc(Sc2nc(N)nc3nc[nH]c23)n1
dose: 12.5 mg/kg/injection, schedule: Q01DX009 (ip), vehicle: Klucel (hydroxypropylcellulose) (HPC)
  T/C: 98 % of control
[11]
  T/C: 101 % of control and 107 % of control
[10]
  T/C: 123 % of control and 124 % of control

## CC(C)(C)NCC(O)CSc1nc(-c2ccc(C(N)=O)s2)cs1 (stereo not given)
[5]
  T/C: 100 % of control
[6]
  T/C: 109 % of control
dose: 200.0 mg/kg/injection, schedule: Q01DX009 (ip), vehicle: saline with Tween-80
  T/C: 109 % of control

## O=C(O)CNC(=O)NC(Cc1ccccc1)C(=O)O (stereo not given)
[7]
  T/C: 105 % of control
[8]
  T/C: 105 % of control
[9]
  T/C: 93 % of control

## COc1ccc2nc(-c3ccc(Cl)cc3)cc(C(=O)O)c2c1
dose: 50.0 mg/kg/injection, schedule: Q01DX005 (ip), vehicle: Klucel (hydroxypropylcellulose) (HPC)
  T/C: 99 % of control
dose: 100.0 mg/kg/injection, schedule: Q01DX005 (ip), vehicle: Klucel (hydroxypropylcellulose) (HPC)
  T/C: 100 % of control
dose: 200.0 mg/kg/injection, schedule: Q01DX005 (ip), vehicle: Klucel (hydroxypropylcellulose) (HPC)
  T/C: 100 % of control

## CCCCCCCC/C=C/CCCCCCCC(=O)N(C)CCOC(=O)C(C)(C)C
[10]
  T/C: 122 % of control and 95 % of control
[1]
  T/C: 106 % of control and 120 % of control
[2]
  T/C: 103 % of control and 114 % of control

## CCOC(=O)C(CC)Oc1cccc2c1oc1ccccc12 (stereo not given)
[11]
  T/C: 103 % of control
[10]
  T/C: 106 % of control
[1]
  T/C: 101 % of control
[2]
  T/C: 109 % of control

## CC1CN2COC(=S)SSSSC(=S)OCN3CC(C)N(COC(=S)SSSSC(=S)OCN1CC2C)CC3C (stereo not given)
[7]
  T/C: 99 % of control
[8]
  T/C: 103 % of control
[9]
  T/C: 106 % of control

## COc1cc2c(cc1OC)C(O)C1CCCNC1C2 (stereo not given)
dose: 25.0 mg/kg/injection, schedule: Q04DX002 (ip), vehicle: saline
  T/C: 98 % of control
dose: 50.0 mg/kg/injection, schedule: Q04DX002 (ip), vehicle: saline
  T/C: 103 % of control
dose: 100.0 mg/kg/injection, schedule: Q04DX002 (ip), vehicle: saline
  T/C: 102 % of control
dose: 200.0 mg/kg/injection, schedule: Q04DX002 (ip), vehicle: saline
  T/C: 102 % of control
dose: 400.0 mg/kg/injection, schedule: Q04DX002 (ip), vehicle: saline
  T/C: 101 % of control

## O=NNc1ccc(Sc2ccc(NN=O)nc2)cc1
dose: 3.12 mg/kg/injection, schedule: Q01DX009 (ip), vehicle: water
  T/C: 124 % of control
dose: 6.25 mg/kg/injection, schedule: Q01DX009 (ip), vehicle: water
  T/C: 123 % of control
dose: 12.5 mg/kg/injection, schedule: Q01DX009 (ip), vehicle: water
  T/C: 100 % of control

## COC(=O)c1c(C(=O)c2ccccc2)nnn1-c1cccc(C(F)(F)F)c1
dose: 60.0 mg/kg/injection, schedule: Q01DX005 (ip), vehicle: Klucel + Tween-80
  T/C: 102 % of control
dose: 120.0 mg/kg/injection, schedule: Q01DX005 (ip), vehicle: Klucel + Tween-80
  T/C: 103 % of control
dose: 240.0 mg/kg/injection, schedule: Q01DX005 (ip), vehicle: Klucel + Tween-80
  T/C: 107 % of control
